Results as given in patent publication US8802678B2, “Carbonylated (aza) cyclohexanes as dopamine D3 receptor ligands” (Bioprojet, priority 2006, dated 2014).

| SMILES | melting point [°C] |
| --- | --- |
| CCN(CC)CCC(=O)N[C@H]1CC[C@H](CCN2CCN(c3cccc(F)c3)CC2)CC1 [Example 411, 3-Diethylamino-N-(4-{2-[4-(3-fluorophenyl)piperazin-1-yl]ethyl}cyclohexyl)propanamide] | 118 |
| N#CCCC(=O)N[C@H]1CC[C@H](CCN2CCN(c3cccc(F)c3)CC2)CC1 [Example 412, 3-Cyano-N-(4-{2-[4-(3-fluorophenyl)piperazin-1-yl]ethyl}cyclohexyl)propanamide] | 186 |
| Cc1ccc(C)c(N2CCN(CC[C@H]3CC[C@H](NC(=O)CCCC#N)CC3)CC2)c1 [Example 413, 4-Cyano-N-(4-{2-[4-(2,5-dimethylphenyl)piperazin-1-yl]ethyl}cyclohexyl)butanamide] | 158 |
| N#CCCCC(=O)N[C@H]1CC[C@H](CCN2CCN(c3cc(Cl)ccc3F)CC2)CC1 [Example 414, N-(4-{2-[4-(5-Chloro-2-fluorophenyl)piperazin-1-yl]ethyl}cyclohexyl)-4-cyanobutanamide] | 165 |
| COc1ccc(Cl)cc1N1CCN(CC[C@H]2CC[C@H](NC(=O)CCCC#N)CC2)CC1 [Example 415, N-(4-{2-[4-(5-Chloro-2-methoxyphenyl)piperazin-1-yl]ethyl}cyclohexyl)-4-cyanobutanamide] | 152 |
| COc1cccc(N2CCN(CC[C@H]3CC[C@H](NC(=O)CCCC#N)CC3)CC2)c1 [Example 416, 4-Cyano-N-(4-{2-[4-(3-methoxyphenyl)piperazin-1-yl]ethyl}cyclohexyl)butanamide] | 145 |
| COc1cccc(N2CCN(CC[C@H]3CC[C@H](NC(=O)C4=CCCC4)CC3)CC2)c1 [Example 417, Cyclopent-1-enecarboxylic acid (4-{2-[4-(3-methoxyphenyl)-piperazin-1-yl]ethyl}cyclohexyl) amide] | 160 |
| COc1cccc(N2CCN(CC[C@H]3CC[C@H](NC(=O)CCC#N)CC3)CC2)c1 [Example 418, 3-Cyano-N-(4-{2-[4-(3-methoxyphenyl)piperazin-1-yl]ethyl}cyclohexyl)propanamide] | 140 |
| COCCCC(=O)N[C@H]1CC[C@H](CCN2CCN(c3cccc(F)c3)CC2)CC1 [Example 419, N-(4-{2-[4-(3-Fluorophenyl)piperazin-1-yl]ethyl}cyclohexyl)-4-methoxybutanamide] | 165 |
| O=C(CC1C=CCC1)N[C@H]1CC[C@H](CCN2CCN(c3cccc(F)c3)CC2)CC1 (stereo partly drawn) [Example 420, 2-Cyclopent-2-enyl-N-(4-{2-[4-(3-fluorophenyl)piperazin-1-yl]ethyl}cyclohexyl)acetamide] | 188 |
| COc1cc(N2CCN(CC[C@H]3CC[C@H](NC(=O)CCCC#N)CC3)CC2)cc(C(F)(F)F)c1 [Example 421, 4-Cyano-N-(4-{2-[4-(3-methoxy-5-trifluoromethylphenyl)piperazin-1-yl]ethyl}cyclohexyl)butanamide] | 147 |
| CCc1ccccc1N1CCN(CC[C@H]2CC[C@H](NC(=O)CC(F)(F)F)CC2)CC1 [Example 422, N-(4-{2-[4-(2-Ethylphenyl)piperazin-1-yl]ethyl}cyclohexyl)-3,3,3-trifluoropropanamide] | 135 |
| N#CCC(=O)N[C@H]1CC[C@H](CCN2CCN(c3cc(C(F)(F)F)c(Cl)cc3Cl)CC2)CC1 [Example 423, 2-Cyano-N-(4-{2-[4-(2,4-dichloro-5-trifluoromethylphenyl)piperazin-1-yl]ethyl}cyclohexyl)acetamide] | 193 |
| N#CCCCC(=O)N[C@H]1CC[C@H](CCN2CCN(c3cc(C(F)(F)F)c(Cl)cc3Cl)CC2)CC1 [Example 424, 4-Cyano-N-(4-{2-[4-(2,4-dichloro-5-trifluoromethylphenyl)piperazin-1-yl]ethyl}cyclohexyl)butanamide] | 188 |
| CCc1cccc(N2CCN(CC[C@H]3CC[C@H](NC(=O)CS(C)(=O)=O)CC3)CC2)c1 [Example 425, N-(4-{2-[4-(3-Ethylphenyl)-piperazin-1-yl]ethyl}cyclohexyl)-2-methanesulfonylacetamide] | 185 |
